From patent publication US20070254035A1, “Preparing Active Polymer Extrudates” (priority 2003, published 2007) come the findings set out here.

The subject of one assay is ribonuclease. Put plainly: Standard activity assay of ribonuclease liberated from the CO2-processed polymer extrudate. Format: biochemical. To be noted: Example 5: poly(D,L-lactic acid) MW 71,000 : enzyme ca. 20:1 w/w, CO2 ca. 35° C., 300 bar; compared to ribonuclease that has not undergone processing. Here is the method:
(§1) Poly(D,L-lactic acid) (MW 71,000) and ribonuclease enzyme powder are added to a high pressure autoclave at a defined ratio (ca. 20:1 weight for weight). The autoclave is charged with carbon dioxide at a defined temperature and pressure (ca. 35° C., 300 bar) sufficient to ensure plasticization of the polymer by carbon dioxide and the contents are mixed together. Discharging of the contents into a second autoclave at atmospheric pressure, through a longer angled nozzle, yields a solid fibrous-mesh product, containing ribonuclease, of similar morphology to Example 1. Upon liberation from the polymer the biological activity of ribonuclease is unaffected by the carbon dioxide processing compared to ribonuclease that has not undergone processing. Standard activity assays described in the literature are used to determine the ribonuclease activity.

The next assay concerns lysozyme. Put plainly: Standard activity assay of lysozyme liberated from the CO2-processed polymer extrudate. Format: biochemical. The conditions noted are these: Example 6: poly(D,L-lactic acid) MW 71,000 : enzyme ca. 20:1 w/w, CO2 ca. 35° C., 300 bar; compared to lysozyme that has not undergone processing. Here is the method:
as §1, with “lysozyme” for “ribonuclease”, “lysozyme,” for “ribonuclease,”

Turning to ribonuclease, in the assay on ribonuclease, the “biological activity of ribonuclease upon liberation from the polymer” value was “unaffected”.
Take lysozyme: the “biological activity of lysozyme upon liberation from the polymer” value with lysozyme is “unaffected”.
